Data taken from US9770026B2, “Substituted pyrimidine compound and uses thereof” (Shenyang Sinochem Agrochemicals R&D Co., Ltd., priority 2012, dated 2017).

Assays:
[1] = tested on: cucumber gray mold; test: fungicidal activity in vitro (inhibition rate) against cucumber gray mold; type: cell-based; settings: 25 ppm, in vitro; read-out: inhibition rate against cucumber gray mold
[2] = tested on: wheat powdery mildew; test: protectant activity in vivo against wheat powdery mildew; settings: Triticum aestivum, 168 h; for pest or weed control at 6.25 µg/mL: read-out: control effect against wheat powdery mildew (%), 6.25 mg/L; for pest or weed control at 6.25 µg/mL / pest or weed control at 25 µg/mL / pest or weed control at 100 µg/mL / pest or weed control at 400 µg/mL / pest or weed control at 0.4 µg/mL / pest or weed control at 1.6 µg/mL: protectant activity; for pest or weed control at 25 µg/mL: read-out: control effect against wheat powdery mildew (%), 25 mg/L; for pest or weed control at 100 µg/mL: read-out: control effect against wheat powdery mildew (%), 100 mg/L; for pest or weed control at 400 µg/mL: read-out: control effect against wheat powdery mildew (%), 400 mg/L; for pest or weed control at 400 ppm: read-out: protectant activity against wheat powdery mildew in vivo, 400 ppm; for pest or weed control at 0.4 µg/mL: read-out: control effect against wheat powdery mildew (%), 0.4 mg/L; for pest or weed control at 1.6 µg/mL: read-out: control effect against wheat powdery mildew (%), 1.6 mg/L; for pest or weed control at 6.25 ppm: read-out: protectant activity against wheat powdery mildew in vivo, 6.25 ppm; for pest or weed control at 25 ppm: read-out: protectant activity against wheat powdery mildew in vivo, 25 ppm; for pest or weed control at 100 ppm: read-out: protectant activity against wheat powdery mildew in vivo, 100 ppm
[3] = tested on: rice blast; test: microbe, parasite or virus in culture; type: cell-based; settings: Pyricularia oryzae; for inhibition at 25 ppm: read-out: inhibition rate against rice blast, 25 ppm, in vitro
[4] = tested on: cucumber downy mildew; test: protectant activity in vivo against cucumber downy mildew; settings: Cucumis sativus, 168 h; for pest or weed control at 25 µg/mL: read-out: control effect against cucumber downy mildew (%), 25 mg/L; for pest or weed control at 50 µg/mL: read-out: control effect against cucumber downy mildew (%), 50 mg/L; for pest or weed control at 100 µg/mL: read-out: control effect against cucumber downy mildew (%), 100 mg/L; for pest or weed control at 400 µg/mL: read-out: control effect against cucumber downy mildew (%), 400 mg/L; for pest or weed control at 100 ppm: read-out: protectant activity against cucumber downy mildew in vivo, 100 ppm; for pest or weed control at 400 ppm: read-out: protectant activity against cucumber downy mildew in vivo, 400 ppm
[5] = tested on: armyworm; test: bioactivity test against armyworm, airbrush spray; type: in vivo; settings: 72 h; for pest or weed control at 600 µg/mL: 600 mg/L
[6] = tested on: corn rust; test: protectant activity in vivo against corn rust; settings: Zea mays, 168 h; for pest or weed control at 6.25 µg/mL: read-out: control effect against corn rust (%), 6.25 mg/L; for pest or weed control at 25 µg/mL: read-out: control effect against corn rust (%), 25 mg/L; for pest or weed control at 100 µg/mL: read-out: control effect against corn rust (%), 100 mg/L; for pest or weed control at 400 µg/mL: read-out: control effect against corn rust (%), 400 mg/L; for pest or weed control at 25 ppm: read-out: protectant activity against corn rust in vivo, 25 ppm; for pest or weed control at 100 ppm: read-out: protectant activity against corn rust in vivo, 100 ppm; for pest or weed control at 400 ppm: read-out: protectant activity against corn rust in vivo, 400 ppm; for pest or weed control at 6.25 ppm: read-out: protectant activity against corn rust in vivo, 6.25 ppm
[7] = tested on: carmine spider mite; test: bioactivity test against carmine spider mite, airbrush spray; type: in vivo; settings: Tetranychus cinnabarinus, 72 h; for pest or weed control at 600 µg/mL: 600 mg/L
How it was run: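 Broadbean seedlings infested with adult mites were sprayed with compound (acetone/methanol stock diluted in 0.1% Tween 80 water) by airbrush at 0.7 kg/cm^2, 0.5 ml. Three replicates were run. Mortality was scored after 72 hrs.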

[8] = tested on: Green peach aphids (Myzus Persicae Sulzer); test: bioactivity test against green peach aphid, airbrush foliar spray; type: in vivo; settings: Myzus persicae, foliar, 48 h; for pest or weed control at 10 µg/mL: 10 mg/L; for pest or weed control at 100 µg/mL: 100 mg/L; for pest or weed control at 600 µg/mL: 600 mg/L
How it was run: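 Death rate was scored at 48 hrs, held at 25±1 C and 60±5% RH, following airbrush foliar spray (0.5 mL, 10 psi) onto cabbage leaf discs bearing about 15-30 aphids. Test solutions: compound dissolved in 1:1 acetone:methanol, brought to concentration with 0.1% tween 80 water.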

[9] = tested on: Diamond back moth; test: insecticidal activity against diamond back moth, airbrush spray; type: in vivo; settings: 72 h; for pest or weed control at 600 µg/mL: 600 mg/L
How it was run: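 Airbrush leaf-disc spray test: both faces of 2 cm cabbage discs received 0.5 ml of test solution at 0.7 kg/cm^2. Solutions were made in acetone:methanol (1:1) and brought to concentration with 0.1% Tween 80 in water. Ten second-instar larvae per disc, triplicates, were held at 25° C and 60˜70% R.H., with mortality recorded at 72 hrs.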

[10] = read-out: Insecticidal activity against armyworm (%)
[11] = contrastive test, read-out: Insecticidal activity against carmine spider mite (% )
[12] = contrastive test, read-out: Insecticidal activity against peach aphid (%)

| SMILES | inhibition at 25 ppm [1] [%] | pest or weed control at 6.25 µg/mL [2] [%] | pest or weed control at 25 µg/mL [2] [%] | pest or weed control at 100 µg/mL [2] [%] | pest or weed control at 400 µg/mL [2] [%] | inhibition at 25 ppm [3] [%] | pest or weed control at 400 µg/mL ([4]; protectant activity) [%] | pest or weed control at 600 µg/mL [5, 10] [%] | pest or weed control at 6.25 µg/mL ([6]; protectant activity) [%] | pest or weed control at 25 µg/mL ([6]; protectant activity) [%] | pest or weed control at 100 µg/mL ([6]; protectant activity) [%] | pest or weed control at 400 µg/mL ([6]; protectant activity) [%] | pest or weed control at 600 ppm ([5]; mortality after 72 h) [%] | pest or weed control at 400 ppm [2] [%] | pest or weed control at 600 µg/mL [7, 11] [%] | pest or weed control at 600 ppm ([7]; mortality after 72 hrs) [%] | pest or weed control at 600 µg/mL [8, 12] [%] | pest or weed control at 100 ppm ([8]; death rate after 48 hrs) [%] | pest or weed control at 600 ppm ([8]; death rate after 48 hrs) [%] | pest or weed control at 25 ppm [6] [%] | further results |
| --- | --- | --- | --- | --- | --- | --- | --- | --- | --- | --- | --- | --- | --- | --- | --- | --- | --- | --- | --- | --- | --- |
| CC(F)c1ncnc(NCCc2ccc(Oc3ccc(C(F)(F)F)cc3)cc2)c1Cl (stereo not drawn) [CK1, reference compound] | 0 | 80 | 100 | 100 | 100 | 0 | 100 |  |  |  |  |  |  |  |  |  |  |  |  |  | pest or weed control at 3.125 µg/mL ([4]; read-out: control effect against cucumber downy mildew (%), 3.125 mg/L, protectant activity): 20%; pest or weed control at 6.25 µg/mL ([4]; read-out: control effect against cucumber downy mildew (%), 6.25 mg/L, protectant activity): 30%; pest or weed control at 12.5 µg/mL ([4]; read-out: control effect against cucumber downy mildew (%), 12.5 mg/L, protectant activity): 50%; pest or weed control at 25 µg/mL ([4]; protectant activity): 100%; pest or weed control at 50 µg/mL ([4]; protectant activity): 100%; pest or weed control at 100 µg/mL ([4]; protectant activity): 100% |
| CCc1ncnc(NC(C)c2ccc(Oc3ccc(C(F)(F)F)cc3)cc2)c1Cl (stereo not drawn) [CK47, reference compound] | 0 |  |  |  |  | < 50 |  | 86 | 0 | 0 | 30 | 80 |  |  |  |  |  |  |  |  | pest or weed control at 10 µg/mL ([5]; 10 mg/L, read-out: Insecticidal activity against armyworm (%)): 0%; pest or weed control at 100 µg/mL ([5]; 100 mg/L, read-out: Insecticidal activity against armyworm (%)): 25%; inhibition at 8.3 ppm ([3]; read-out: inhibition rate against rice blast, 8.3 ppm, in vitro): 0% |
| Cc1ncnc(NCCc2ccc(Oc3ccc(C(F)(F)F)cc3)cc2)c1Cl [II-69] | 80 to 99 |  |  |  |  | 80 to 99 |  |  |  |  |  |  | 100 | 100 | 100 | 100 | 100 | 100 | 100 | 100 | pest or weed control at 100 ppm ([5]; 100 ppm, mortality after 72 h): 80 to 99%; pest or weed control at 10 µg/mL ([7]; 10 mg/L, contrastive test, read-out: Insecticidal activity against carmine spider mite (% )): 90%; pest or weed control at 100 µg/mL ([7]; 100 mg/L, contrastive test, read-out: Insecticidal activity against carmine spider mite (% )): 100%; pest or weed control at 10 ppm ([7]; 10 ppm, mortality after 72 hrs): 80 to 99%; pest or weed control at 100 ppm ([7]; mortality after 72 hrs): 100%; pest or weed control at 2.5 µg/mL ([8]; 2.5 mg/L, contrastive test, read-out: Insecticidal activity against peach aphid (%)): 81%; pest or weed control at 5 µg/mL ([8]; 5 mg/L, contrastive test, read-out: Insecticidal activity against peach aphid (%)): 100%; pest or weed control at 10 µg/mL [8, 12]: 100%; pest or weed control at 100 µg/mL [8, 12]: 100%; pest or weed control at 2.5 ppm ([8]; 2.5 ppm, death rate after 48 hrs): 80 to 99%; pest or weed control at 5 ppm ([8]; 5 ppm, death rate after 48 hrs): 100%; pest or weed control at 10 ppm ([8]; death rate after 48 hrs): 100%; pest or weed control at 100 ppm [4]: 80 to 99%; pest or weed control at 400 ppm [4]: 100%; pest or weed control at 100 ppm [6]: 100%; pest or weed control at 400 ppm [6]: 100% |
| CCc1ncnc(NCCc2ccc(Oc3cc(Cl)cc(Cl)c3)cc2)c1Cl [II-303] | 100 | 90 | 100 | 100 | 100 |  |  |  | 100 | 100 | 100 | 100 | 80 to 99 | 100 |  | 100 |  | 100 | 100 | 100 | pest or weed control at 0.4 µg/mL [2]: 25%; pest or weed control at 1.6 µg/mL [2]: 80%; pest or weed control at 6.25 ppm [2]: 80 to 99%; pest or weed control at 25 ppm [2]: 100%; pest or weed control at 100 ppm [2]: 100%; pest or weed control at 100 ppm [4]: 80 to 99%; pest or weed control at 400 ppm [4]: 100%; pest or weed control at 600 ppm ([9]; 600 ppm, mortality after 72 hrs, read-out: control (test results against diamond back moth)): 80 to 99%; pest or weed control at 0.4 µg/mL ([6]; read-out: control effect against corn rust (%), 0.4 mg/L, protectant activity): 50%; pest or weed control at 1.6 µg/mL ([6]; read-out: control effect against corn rust (%), 1.6 mg/L, protectant activity): 80%; pest or weed control at 6.25 ppm [6]: 100%; pest or weed control at 100 ppm [6]: 100%; pest or weed control at 400 ppm [6]: 100% |
| FC(F)(F)c1cnc(Oc2ccc(CCNc3cc(Cl)ncn3)cc2)c(Cl)c1 [CK70, reference compound] | 0 | 0 | 0 | 0 | 98 |  | 100 | 0 | 0 | 10 | 30 | 100 |  |  | 13 |  | 81 |  |  |  | pest or weed control at 10 µg/mL [8, 12]: 0%; pest or weed control at 100 µg/mL [8, 12]: 0%; pest or weed control at 25 µg/mL ([4]; protectant activity): 0%; pest or weed control at 50 µg/mL ([4]; protectant activity): 30%; pest or weed control at 100 µg/mL ([4]; protectant activity): 60%; pest or weed control at 600 µg/mL [9]: 0% |
| COC(=O)c1nc(Cl)nc(NC(C)c2ccc(Oc3ncc(C(F)(F)F)cc3Cl)cc2)c1Cl (stereo not drawn) [CK34, reference compound] | 0 |  |  |  | 0 |  | 85 | 0 |  |  |  | 0 |  |  | 0 |  | 65 |  |  |  | pest or weed control at 600 µg/mL [9]: 0% |
| FC(F)c1ncnc(NCCc2ccc(Oc3ccc(C(F)(F)F)cn3)cc2)c1Cl [Compound I-2342] | 100 | 100 | 100 | 100 | 100 | 80 to 99 |  |  |  |  |  |  | 100 | 100 |  | 100 |  | 100 | 100 | 100 | pest or weed control at 0.4 µg/mL [2]: 60%; pest or weed control at 1.6 µg/mL [2]: 95%; pest or weed control at 6.25 ppm [2]: 100%; pest or weed control at 25 ppm [2]: 100%; pest or weed control at 100 ppm [2]: 100%; pest or weed control at 100 ppm ([7]; mortality after 72 hrs): 100%; pest or weed control at 10 ppm ([8]; death rate after 48 hrs): 100%; pest or weed control at 6.25 ppm [6]: 100%; pest or weed control at 100 ppm [6]: 100%; pest or weed control at 400 ppm [6]: 100% |
